From patent US12061143B2, “Methods for rapid determinations of antibiotic susceptibility phenotypes” (priority 2018, dated 2024)

Tests used:
Type in all cases: cell-based
[1] = system: A. nosocomialis strain M2; experiment: FAST flow cytometry AST with PB-sQF, bacteria recovered from 10% human blood; settings: M2 spiked in 10% human blood, assayed within 8 hrs of simulated blood draw
Procedure: Varied counts of bacteria were mixed with human blood and diluted 1:9 (v/v) with bacterial growth medium to desired bacterial concentrations (<10 CFU/mL final solution) and plated to independently confirm CFU/mL blood. Saponin was immediately added and the samples shaken for 15 minutes to achieve selective blood cell lysis. After hemolysis, bacteria were spun down and washed with PBS. […] This allowed comparison of fold distances among all samples as each is individually paired to its own control, as is each replicate.
To simulate a blood specimen from a patient with bacteremia, the isolates were grown, diluted to the desired CFU/mL in blood (ZenBio, Research Triangle Park, NC) and saponin was added to achieve the final diluted sample. Initial bacterial cultures were prepared using Luria-Bertani (LB) broth for (E. coli) or cation-adjusted Mueller-Hinton broth (CAMHB). The fresh bacterial cultures started from ˜0.05 optical density (OD) by inoculating a 6-mL fresh growth medium with overnight culture were grown in an incubator shaker (MaxQ 4000, Thermal Fisher Scientific, Waltham, MA) at 37° C. and 225 rpm. […] Bacterial densities were determined by plating onto LB plates. […]
Cytometric data were collected by BD LSRFortessa flow cytometer (Becton Dickinson, Franklin Lake, NY) equipped with a 100 mW, 488 nm laser for the scatter signal. […] Data were recorded with FACSDiVa provided by BD. […]

[2] = system: 10% human blood samples without bacteria inoculation; experiment: Antibiotic-treated 10% human blood only control (no bacteria), flow cytometry; settings: 10% human blood without bacteria, around the resistance breakpoints of Enterobacteriaceae
Procedure: FIGS. 6A-6D. Antibiotic-treated 10% human blood only results. Cytometric data with (FIG. 6A) Ampicillin (FIG. 6B) Tetracycline (FIG. 6C) Gentamicin. The greyscale plots are the no-antibiotic controls and the black contour plots are the antibiotic-treated data with the antibiotic concentration indicated at each plot. (FIG. 6D) PB-sQF results for FIGS. 6A-6C). […] For each antibiotic, the resistant breakpoints of Enterobacteriaceae are 16 μg/mL for tetracycline and gentamicin and 32 μg/mL for ampicillin.
This confirms that the gentamicin sensitivity of Mu14S observed after blood culture^(1) can also be observed on much shorter timescales with FAST. Overnight plating confirms that initial Mu14S counts were 3, 2, 5 and CFU/mL for tetracycline, gentamicin and ampicillin data after 10-fold dilution of the blood/bacteria mixture, corresponding to FAST being performed on whole blood samples containing ˜30, ˜20 and ˜50 CFU/mL. […] Thus, diluting bacterimic blood specimens 1:9 (v:v) directly into saponin-containing growth medium provides a path to ASTs within 8 hours from initial blood draw, with excellent results matching independent (36-44 hrs) MIC determinations from pure, overnight cultures (˜10^8 CFU/mL) that could only be initiated after (˜24 hr) positive blood culture.

[3] = system: Lab-strain E. coli (ATCC); experiment: FAST with low bacterial counts (500 counts by flow cytometry); settings: each antibiotic at MIC, ¼ MIC and 1/16 MIC, bars beyond the 99% confidence line
From the text: FIG. 14. Bactericidal Antibiotic-induced changes for low counts of E. coli. Lab-strain E. coli (ATCC) ASTs performed with 500 counts by flow cytometry with gentamicin (Gen), penicillin G (PenG), and tetracycline (Tet) each at MIC, ¼ MIC and 1/16 MIC. This strain is seen to be sensitive to all three antibiotics, as the bars extend beyond the 99% confidence line.
While both morphology and growth inhibition occur upon exposure to antibiotics near the minimum inhibitory concentration, standard ASTs are based on growth inhibition alone. The presence of bacteria is clearly indicated by the presence of a particular scattering peak in the multidimensional histogram. This is much more sensitive and less affected by background than is shifts in a peak resulting from morphological changes upon antibiotic exposure. […] For even a few hundred counts, the presence of a bacterial population can be readily assessed with flow cytometry, but error bars and statistical distances must be properly determined relative to no-antibiotic controls. When too few counts for triplicate runs exist, control and each antibiotic exposure histograms are treated as probability distributions that are representative of the true mother distribution for each condition. Each histogram is binned (either adaptively with probability binning or using regular bins) and the distribution of data within each bin is determined. […]

Gentamicin was tested, and the “PB-sQF FAST susceptibility” value [1] was “susceptible”, the “scattered light histograms change” value [2] was “do not significantly change” and the “PB-sQF AST susceptibility at low counts” value [3] was “sensitive”.
